Measurements from patent US20150245596A1, “MELANOCORTIN RECEPTOR MUTANT MOUSE AND USES THEREOF” (THE GENERAL HOSPITAL CORPORATION, priority 2012, published 2015).
Entries after “also recorded” stand apart in the source; their conditions may differ.

Legend:
redhead-BRaf^CA melanoma = assay: In vivo PLX4720 study, mouse chow containing PLX4720; conditions: 4 weeks of mouse chow containing 2% PLX4720 by weight, n=3
Description: At 6-10 weeks of age the dorsal fur was trimmed using animal shears with a 0.25 mm head and the mice were treated topically with 20 mg/ml tamoxifen for 5 consecutive days. […] For in vivo PLX4720 studies, animals were given ad libitum mouse chow containing 2% PLX4720 by weight or control chow acquired from Plexxikon Inc. All studies and procedures involving animal subjects were approved by the Institutional Animal Care and Use Committees of Massachusetts General Hospital and Dana-Farber Harvard Cancer Center and were conducted strictly in accordance with the approved animal handling protocol.

[1] = tested on: melanocytic markers (Mitf, Dct, Tyrp1 mRNA); assay: Quantitative RT-PCR of melanocytic markers in primary cultured tumor cells; type: cell-based, mouse; conditions: 2 μM PLX4720, mRNA normalized to 18s rRNA and 0 h timepoint
Description: RNA was harvested from primary cultured tumor cells treated for varying times with forskolin or PLX4720 using the RNeasy Plus mini kit (QIAGEN). mRNA expression of melanocytic markers was determined using intron-spanning mouse-specific primers with Kapa SYBR FAST qPCR master mix (KAPA BIOSYSTEMS). Expression was normalized to 18s rRNA and 0 hour time-points.

[2] = tested on: primary cell line derived from one of the redhead (BRaf^V600E-Mc1r^e/e) melanomas; assay: cells; conditions: Mus musculus, 72 h, read-out: GI50, melanoma cell proliferation
Description: (§1) Tumor cells were digested overnight in 10 mg/ml collagenase and 1 mg/ml hyaluronidase. Initially tumor cells were grown in RPMI media with HEPES and 20% serum. Subsequently tumor cells were grown in DMEM media with 10% serum.

[3] = tested on: primary cell line derived from one of the redhead (BRaf^V600E-Mc1r^e/e) melanomas; conditions: redhead-derived melanoma cells
Description: as §1

## CCCS(=O)(=O)Nc1ccc(F)c(C(=O)c2c[nH]c3ncc(Cl)cc23)c1F [PLX4720]
redhead-BRaf^CA melanoma
  melanoma growth in vivo: blocked tumor cell growth in vivo; also recorded: blocks melanoma growth in vivo
[1]
  expression of melanocytic markers: upregulates
[2]
  GI50: 500 nM
[3]
  melanoma cell proliferation in vitro: prevented melanoma cell proliferation in vitro

## N#CC(=C(/N)Sc1ccccc1N)/C(C#N)=C(\N)Sc1ccccc1N [U0126]
[2]
  GI50: 2000 nM
[3]
  melanoma cell proliferation in vitro: prevented melanoma cell proliferation in vitro
